Measurements from US20180093951A1, “PESTICIDALLY ACTIVE CAR[…] THIOCAR[…] DERIVATIVES” (Syngenta Participations AG, priority 2015, published 2018).

What was measured:
[1] = system: Tetranychus Urticae; experiment: Tetranychus urticae (two-spotted spider mite) feeding/contact activity on bean leaf discs; format: in vivo; conditions: foliar, 192 h, application rate of 200 ppm, mixed population (mobile stages), 8 days after infestation
Protocol: Example B4: Tetranychus Urticae (Two-Spotted Spider Mite) (Feeding/Contact Activity)
Bean leaf discs on agar in 24-well microtiter plates were sprayed with aqueous test solutions prepared from 10′000 ppm DMSO stock solutions. After drying the leaf discs were infested with a mite population of mixed ages. The samples were assessed for mortality on mixed population (mobile stages) 8 days after infestation.

[2] = system: Diabrotica Balteata; experiment: Diabrotica balteata (corn root worm) maize sprout test; format: in vivo; conditions: 96 h, application rate of 200 ppm, L2 larvae, 4 days after infestation, read-out: effect in at least one of the two categories (mortality or growth inhibition)
Protocol: Example B3: Diabrotica Balteata (Corn Root Worm)
Maize sprouts, placed on an agar layer in 24-well microtiter plates were treated with aqueous test solutions prepared from 10,000 ppm DMSO stock solutions by spraying. After drying, the plates were infested with L2 larvae (6 to 10 per well). The samples were assessed for mortality and growth inhibition in comparison to untreated samples 4 days after infestation.
The following compounds gave an effect of at least 80% in at least one of the two categories (mortality or growth inhibition) at an application rate of 200 ppm: P1, P2, P3, P4, P5, P10 and P14.

[3] = system: Plutella Xylostella; experiment: Plutella xylostella (diamond back moth) artificial diet test; format: in vivo; conditions: 120 h, application rate of 200 ppm, L2 larvae, 5 days after infestation, read-out: effect in at least one of the two categories (mortality or growth inhibition)
Protocol: Example B2: Plutella Xylostella (Diamond Back Moth)
24-well microtiter plates with artificial diet were treated with aqueous test solutions prepared from 10,000 ppm DMSO stock solutions by pipetting. After drying, the plates were infested with L2 larvae (10 to 15 per well). The samples were assessed for mortality and growth inhibition in comparison to untreated samples 5 days after infestation.
The following compounds gave an effect of at least 80% in at least one of the two categories (mortality or growth inhibition) at an application rate of 200 ppm: P1, P2, P3, P5, P10, P11, P14 and P20.

[4] = system: Spodoptera littoralis; experiment: Spodoptera littoralis (Egyptian cotton leaf worm) cotton leaf disc spray test; format: in vivo; conditions: foliar, 72 h, application rate of 200 ppm, L1 larvae, 3 days after infestation, read-out: control (at least one of mortality, anti-feedant effect, growth inhibition)
Protocol: Example B1: Spodoptera littoralis (Egyptian Cotton Leaf Worm)
Cotton leaf discs were placed on agar in 24-well microtiter plates and sprayed with aqueous test solutions prepared from 10,000 ppm DMSO stock solutions. After drying, the leaf discs were infested with five L1 larvae. The samples were assessed for mortality, anti-feedant effect, and growth inhibition in comparison to untreated samples 3 days after infestation. Control of Spodoptera littoralis by a test sample is when at least one of mortality, anti-feedant effect, and growth inhibition is higher than the untreated sample.

## CC/C(=N\OC(=O)Nc1ccccc1C(C)C)c1ccc(-c2ncn(-c3ccc(OC(F)(F)F)cc3)n2)cc1
other
  melting point: 170 to 171 °C

## O=C(Nc1cscc1Br)O/N=C/c1ccc(-c2ncn(-c3ccc(OC(F)(F)F)cc3)n2)cc1
other
  melting point: 197 to 198 °C

## Cc1cccc(C)c1NC(=O)O/N=C/c1ccc2c(c1)C(=O)N(c1ccc(OC(F)(F)F)cc1)C2=O
other
  melting point: 247 to 248 °C

## CC/C(=N\OC(=O)Nc1ccccc1C(F)(F)F)c1ccc(-c2ncn(-c3ccc(OC(F)(F)F)cc3)n2)cc1
other
  melting point: 151 to 154 °C

## Cc1cc(NC(=O)O/N=C/c2ccc(-c3ncn(-c4ccc(OC(F)(F)F)cc4)n3)cc2)c(C(F)(F)F)o1 [Compound P19]
[1]
  mortality at 200 ppm: ≥ 80%

## O=C(Nc1ccccc1)O/N=C/c1ccc(-c2ncn(-c3ccc(OC(F)(F)F)cc3)n2)cc1
other
  melting point: 174 to 180 °C

## CC(C)c1ccccc1NC(=O)O/N=C/c1ccc2c(c1)nc(-c1ccc(OC(F)(F)F)cc1)n2C
other
  melting point: 93 to 130 °C

## COc1ccccc1NC(=O)O/N=C/c1ccc(-c2ncn(-c3ccc(OC(F)(F)F)cc3)n2)cc1
other
  melting point: 182 to 183 °C

## O=C(Nc1ccccc1Cl)O/N=C/c1ccc(-c2ncn(-c3ccc(OC(F)(F)F)cc3)n2)cc1
other
  melting point: 183 to 184 °C

## Cc1cccc(C)c1NC(=O)O/N=C/c1ccc(-c2ncn(-c3ccc(OC(F)(F)F)cc3)n2)cc1 [Compound P14]
[2]
  percent effect (mortality or growth inhibition) at 200 ppm: ≥ 80%
[3]
  percent effect (mortality or growth inhibition) at 200 ppm: ≥ 80%

## O=C(Nc1ccc(Cl)nc1)O/N=C/c1ccc(-c2ncn(-c3ccc(OC(F)(F)F)cc3)n2)cc1 [Compound P20]
[4]
  percent control (mortality, anti-feedant effect or growth inhibition) at 200 ppm: ≥ 80%
[1]
  mortality at 200 ppm: ≥ 80%
[3]
  percent effect (mortality or growth inhibition) at 200 ppm: ≥ 80%

## C/C(=N\OC(=O)Nc1ccccc1C(C)C)c1ccc(-c2ncn(-c3ccc(OC(F)(F)F)cc3)n2)cc1 [Compound P3]
[2]
  percent effect (mortality or growth inhibition) at 200 ppm: ≥ 80%
[3]
  percent effect (mortality or growth inhibition) at 200 ppm: ≥ 80%

## Cc1cccc(C)c1NC(=O)O/N=C/c1ccc2c(c1)nc(-c1ccc(OC(F)(F)F)cc1)n2C
other
  melting point: 68 to 124 °C

## C/C(=N\OC(=O)Nc1ccccc1C(F)(F)F)c1ccc(-c2ncn(-c3ccc(OC(F)(F)F)cc3)n2)cc1 [Compound P4, [1-[4-[1-[4-(trifluoromethoxy)phenyl]-1,2,4-triazol-3-yl]phenyl]ethylideneamino]N-[2-(trifluoromethyl)phenyl]carbamate]
[2]
  percent effect (mortality or growth inhibition) at 200 ppm: ≥ 80%

## CC(C)c1ccccc1NC(=O)O/N=C\c1ccc(-c2ncn(-c3ccc(OC(F)(F)F)cc3)n2)cc1 (single isomer, unassigned) [Compound P1, [(Z)-[4-[1-[4-(trifluoromethoxy)phenyl]-1,2,4-triazol-3-yl]phenyl]methyleneamino] N-(2-isopropylphenyl) carbamate]
[4]
  percent control (mortality, anti-feedant effect or growth inhibition) at 200 ppm: ≥ 80%
[2]
  percent effect (mortality or growth inhibition) at 200 ppm: ≥ 80%
[3]
  percent effect (mortality or growth inhibition) at 200 ppm: ≥ 80%

## C/C(=N\OC(=O)Nc1c(C)cccc1C)c1ccc(-c2ncn(-c3ccc(OC(F)(F)F)cc3)n2)cc1 [Compound P5]
[4]
  percent control (mortality, anti-feedant effect or growth inhibition) at 200 ppm: ≥ 80%
[2]
  percent effect (mortality or growth inhibition) at 200 ppm: ≥ 80%
[3]
  percent effect (mortality or growth inhibition) at 200 ppm: ≥ 80%

## CC/C(=N\OC(=O)Nc1c(C)cccc1C)c1ccc(-c2ncn(-c3ccc(OC(F)(F)F)cc3)n2)cc1 [Compound P10]
[4]
  percent control (mortality, anti-feedant effect or growth inhibition) at 200 ppm: ≥ 80%
[2]
  percent effect (mortality or growth inhibition) at 200 ppm: ≥ 80%
[3]
  percent effect (mortality or growth inhibition) at 200 ppm: ≥ 80%

## Cc1cccc(C)c1NC(=O)O/N=C/c1ccc2nc(-c3ccc(OC(F)(F)F)cc3)n(C)c2c1
other
  melting point: 68 to 124 °C

## CC(C)c1ccccc1NC(=O)O/N=C/c1ccc2nc(-c3ccc(OC(F)(F)F)cc3)n(C)c2c1
other
  melting point: 98 to 130 °C

## Cc1cccc(C)c1NC(=O)O/N=C/CCc1ccc(-c2ncn(-c3ccc(OC(F)(F)F)cc3)n2)cc1 [Compound P11]
[3]
  percent effect (mortality or growth inhibition) at 200 ppm: ≥ 80%

## O=C(Nc1ccccc1C(F)(F)F)O/N=C/c1ccc(-c2ncn(-c3ccc(OC(F)(F)F)cc3)n2)cc1
other
  melting point: 179 to 180 °C

## Cc1cccc(C)c1NC(=O)O/N=C/c1ccc2sc(-c3ccc(OC(F)(F)F)cc3)nc2c1 [Compound P17]
[4]
  percent control (mortality, anti-feedant effect or growth inhibition) at 200 ppm: ≥ 80%

## O=C(Nc1ccc(Cl)cc1Cl)O/N=C/c1ccc(-c2ncn(-c3ccc(OC(F)(F)F)cc3)n2)cc1
other
  melting point: 179 to 182 °C

## CC(C)c1ccccc1NC(=O)O/N=C/c1ccc(-c2ncn(-c3ccc(OC(F)(F)F)cc3)n2)cc1 (single isomer, unassigned) [Compound P2, [(E)-[4-[1-[4-(trifluoromethoxy)phenyl]-1,2,4-triazol-3-yl]phenyl]methyleneamino] N-(2-isopropylphenyl) carbamate]
[4]
  percent control (mortality, anti-feedant effect or growth inhibition) at 200 ppm: ≥ 80%
[2]
  percent effect (mortality or growth inhibition) at 200 ppm: ≥ 80%
[3]
  percent effect (mortality or growth inhibition) at 200 ppm: ≥ 80%
